The target in this assay is Aldo-keto reductase family 1 member B1 (Homo sapiens, UniProt P15121). As to the kind of experiment: Inhibition of human recombinant aldose reductase using DL-glyceraldehyde, HRAR and beta-NADPH incubated for 10 mins by spectrophotometry.

On to `CC(C)=CCC[C@@](C)(O)[C@H]1CC[C@]2(C)[C@@H]1[C@H](O)C[C@@H]1[C@@]3(C)CC[C@H](O[C@@H]4O[C@H](CO)[C@@H](O)[C@H](O)[C@H]4O[C@@H]4O[C@H](CO)[C@@H](O)[C@H](O)[C@H]4O)C(C)(C)[C@@H]3CC[C@]12C`, for which the IC50 was > 200 µM. Turning to `CC(C)=CCC[C@@](C)(O)[C@H]1CC[C@]2(C)[C@@H]1[C@H](O)C[C@@H]1[C@@]3(C)CC[C@H](O[C@@H]4O[C@H](CO)[C@@H](O)[C@H](O)[C@H]4O)C(C)(C)[C@@H]3CC[C@]12C`, the half-inhibitory concentration (IC50) is > 200 µM.

`CC(C)=CCC[C@](C)(O)[C@H]1CC[C@]2(C)[C@@H]1[C@H](O)C[C@@H]1[C@@]3(C)CC[C@H](O[C@@H]4O[C@H](CO)[C@@H](O)[C@H](O)[C@H]4O)C(C)(C)[C@@H]3CC[C@]12C` [GINSENOSIDE RH2]: the IC50 stood at 147 µM.

`CC(C)=CCC[C@](C)(O)[C@H]1CC[C@@]2(C)[C@@H]1[C@@H](O)C[C@@H]1[C@@]3(C)CC[C@H](O)C(C)(C)[C@@H]3[C@@H](O[C@@H]3O[C@H](CO)[C@@H](O)[C@H](O)[C@H]3O[C@@H]3O[C@H](CO)[C@@H](O)[C@H](O)[C@H]3O)C[C@]12C`: the IC50 was > 200 µM. As for `CC(C)=CCC[C@](C)(O)[C@H]1CC[C@]2(C)[C@@H]1[C@H](O)C[C@@H]1[C@@]3(C)CC[C@H](O)C(C)(C)[C@@H]3[C@@H](O[C@@H]3O[C@H](CO)[C@@H](O)[C@H](O)[C@H]3O)C[C@]12C` [GINSENOSIDE RH1], the IC50 was > 200 µM.

As for `CC(C)=CCC[C@](C)(O[C@@H]1O[C@H](CO)[C@@H](O)[C@H](O)[C@H]1O)[C@H]1CC[C@]2(C)[C@@H]1[C@H](O)C[C@@H]1[C@@]3(C)CC[C@H](O)C(C)(C)[C@@H]3CC[C@]12C`, the IC50 is > 200 µM. For the molecule `CC(C)=CCC[C@](C)(O)[C@H]1CC[C@]2(C)[C@@H]1[C@H](O)C[C@@H]1[C@@]3(C)CC[C@H](O[C@@H]4O[C@H](CO)[C@@H](O)[C@H](O)[C@H]4O[C@@H]4O[C@H](CO)[C@@H](O)[C@H](O)[C@H]4O)C(C)(C)[C@@H]3CC[C@]12C`, the IC50 was > 200 µM. In the case of `CC(C)=CCCC(C)(O)[C@H]1CC[C@]2(C)[C@@H]1[C@H](O)C[C@@H]1[C@@]3(C)CC[C@H](O[C@@H]4O[C@H](CO)[C@@H](O)[C@H](O)[C@H]4O)C(C)(C)[C@@H]3CC[C@]12C` (mixture of isomers), the IC50 is > 200 µM.

The values above are taken from ChEMBL document CHEMBL3352229, “20(S)-Ginsenoside Rh2 as aldose reductase inhibitor from Panax ginseng” (Bioorg Med Chem Lett, 2014).
